One molecule from patent US20240252493A1, “Apelin Receptor Modulators for Treating Age-Related Muscle Conditions” (BIOAGE LABS, INC., priority 2021, published 2024) can be followed below.

“Also recorded” adds a separate entry of the source.

The test system of data set [1] is aged (24-month-old) C57BL/6 mice. Briefly: Activity monitoring wheel test (frailty study). To be noted: 24-month-old mice. The data set is classed as in vivo. The protocol: (§1) The animals were housed with access to voluntary running wheels that wirelessly transmit running data to a computer for analysis. Voluntary running wheel activity levels were measured daily, and body weights were measured every 2 weeks.
The study concluded on Study Day 83. Activity wheel monitoring started on Study Day 1 and ended on Study Day 83 (Phase Day 64). The data was analyzed at the end of the study. […] For the frailty portion of the study, mice were assessed using an activity monitoring wheel which was monitored passively with a computer monitoring system. […]
The activity-monitoring wheel is a running disk that monitors rotations. […] Activity was monitored passively and wirelessly with a computer monitoring system. Running wheel activity levels were monitored daily. […] Mouse activity levels were measured as the number of wheel revolutions per day for each mouse and converted into a daily count of kilometers run using the diameter of the wheel. Within each experimental group, the daily median value for activity was calculated. […] The daily differences between the distances run in each group were calculated and tested for an increasing trend using Kendall's rank correlation tau.

For data set [2] the test system is unchanged. Kind of data set: Tissue wet weight and body weight at end of frailty study. The data set is classed as in vivo. To be noted: vs vehicle. The protocol:
as §1
To determine whether increased wheel activity was accompanied by an increase in muscle strength, near the end of the frailty study the mice were subjected to a grid hang test, which measures forearm grip strength. […] Average latency to fall increased in the BGE-105-treated mice (p=0.04, Mann-Whitney U test) (FIGS. 3B and 3C). Thus, the increase in running activity observed in BGE-105-treated mice were accompanied by improved forearm grip strength.

For data set [3], the system named is phosphorylation of Akt. Kind of data set: Western blot of Akt phosphorylation in rat tibialis anterior. The data set is classed as in vivo. The settings on record: rats. The source says: Administration of an apelin receptor agonist can induce the phosphorylation and activation of AMPK in heart tissue. Tissue samples were lysed using T-PER tissue protein extraction reagent (Thermo Fisher Scientific #78510) containing EDTA and protease/phosphatase inhibitors on the Omni Bead Ruptor 12 Homogenizer. Total protein was extracted then quantified using Pierce™ BCA Protein Assay Kit. Loaded equal amounts of total protein per lane on a 4-12% SDS-PAGE gel and transferred to PVDF membrane. Membranes were blocked and blotted with anti-phospho-AMPKα-Thr172 (Cell Signaling Technology, CST #2535), total-AMPKα (CST #2532), anti-phospho-Akt-SeR^473 (CST #4060), total-Akt (CST #4685), anti-phospho-ERK-1/2-Thr202/Tyr204 of Erk1 and Thr185/Tyr187 of Erk2 (CST #4370), total-ERK-1/2 (CST #9107) or anti-APLNR receptor (abcam, ab214369) antibodies. Band intensities were normalized to loading control anti-β-Actin (CST #3700) or anti-GAPDH (abcam, ab181602) antibodies. Immunoreactive proteins were detected using SuperSignal™ West Femto Substrate (Thermo Fisher Scientific #34095) and quantified by Image Lab™ software (Bio-Rad Laboratories, Inc.).
The difference between tissues was conserved among rodent species: In rats, as in mice, apelin receptor levels in rat tissue were 2-fold higher in heart than in soleus, FIGS. 5A-5B. […]

Data set [4] has as its system immobilized human muscles. Briefly: Bed rest study in healthy older adult humans. The data set is classed as in vivo. The settings on record: healthy older adults, 10 days bed rest, 200 mg a day. An excerpt: Two groups of healthy older adult humans (e.g., N=10 per group) who are moderately active remain in bed continuously for 10 days, except for toileting, and they consume a eucaloric diet providing the recommended dietary allowance for protein (0.8 g/kg of protein per day). […] Measurements before and after bed rest include muscle function and protein synthesis.

Data set [5] has as its system 25-HMC. Briefly: Proliferation of immortalized human muscle cells, younger donor. The data set is classed as cell-based. The settings on record: for cell proliferation (measured at day 4): younger subject cells. The protocol: (§2) Immortalized human cells from male donors (25-HMC) […] (79-HMC) are grown from the proliferation stage until they become 80% confluent, differentiate, and become myotubes. […] Early proliferation markers (Pax7, Myf5, MyoD, and MyoG were assessed via RT-PCR (FIG. 8D to 8K)

Data set [6] relates to 79-HMC. Briefly: Early proliferation marker expression (RT-PCR), older donor cells. The data set is classed as cell-based, human. How it is done: as §2
Data set [7] can be described thus: pH of BGE-105 dissolved in deionized water. The data set is classed as physicochemical. To be noted: 275 ug/mL in deionized water. The protocol: BGE-105 was administered in drinking water consumed ad libitum. The compound is mildly acidic when dissolved, resulting in a pH 4.5 solution. The deionized water was adjusted to pH 8.5 by adding 1N NaOH. The vehicle control group consumed water (ad libitum) of the same pH without drug.

Data set [8] has as its system 79-HMC. Kind of data set: Proliferation of immortalized human muscle cells, older donor. The settings on record: for cell proliferation (measured at day 4): older subject cells. The data set is classed as cell-based. The protocol:
as §2

On to `COc1cccc(OC)c1-n1c(NS(=O)(=O)[C@@H](C)[C@H](C)c2ncc(C)cn2)nnc1-c1cncc(C)c1` [BGE-105, (2S,3R)—N-(4-(2,6-dimethoxyphenyl)-5-(5-methyl-3-pyridinyl)-4H-1,2,4-triazol-3-yl)-3-(5-methyl-2-pyrimidinyl)-2-butanesulfonamide], for which the “voluntary running wheel activity vs age-matched controls” value in data set [1] (275 ug/mL in drinking water ad libitum, 64 days) was “statistically significant increase in voluntary motor activity; also recorded: significantly more active; also recorded: decreased significantly less”. For the same molecule, the “distance run more than vehicle-treated mice at end of experimental period” value in data set [1] (275 ug/mL in drinking water, both experiments, on average) was “at least 1 km/day”. The body weight result in data set [2] is reported as “the increase was not significant”. For the same molecule, in data set [2], the “tissue wet weight, gastrocnemius” value was “trend toward higher tissue wet weight”. The “tissue wet weight, heart” value in data set [2] was “no difference”. Also, the “tissue wet weight, quadriceps” value in data set [2] was “trend toward higher tissue wet weight”. Further, in data set [2], the “tissue wet weight, tibialis anterior (TA)” value was “significantly higher tissue wet weight”. For the same molecule, the “phosphorylation of Akt in TA” value is on record as “strongest response” in data set [3] (oral 50 mg/kg BID, 5 consecutive days) and “dose-dependent manner” in data set [3] (oral dosing 5 consecutive days, across doses). Besides, in data set [4], the “muscle atrophy in immobilized human muscles” value was “prevent or attenuate muscle atrophy”. In addition, the “cell proliferation, short-term treatment” value is given as “significant increase of cell proliferation” in data set [5] (young donor cells, day 0 to day 4 post seeding) and “significant increase of cell proliferation” in data set [8] (aged donor cells, day 0 to day 4 post seeding). Besides, the “cell proliferation (measured at day 4)” value in data set [5] (5 nM) was “increase”; in data set [5] (50 nM), “significant increase in cell proliferation”; in data set [8] (5 nM), “significant increase in cell proliferation”; in data set [8] (50 nM), “increase”. Further, the “expression of muscle cell differentiation markers Pax7, Myf5, MyoD, and MyoG” value in data set [6] (aged-donor cells) is “increased the expression”. In data set [6] (older cells, 0.05, 0.5, 5, 50 nM, vs control), the Pax7 levels entry is reported as “significant increase at all treatment doses”. Moreover, the MyoG levels entry in data set [6] (older cells, all treatment levels) was “increase at all treatment levels”. For the same molecule, the Myf5 expression result in data set [6] (older donor cells, 5 and 50 nM) was “equal to apelin treatment”. The MyoD levels entry in data set [6] (older donor cells, all treatment levels) was “increase at all treatment levels”. In addition, the “pH of solution when dissolved” value in data set [7] came out at 4.5.
